Experimental data: patent US10450301B2, “Apoptosis signal-regulating kinase 1 inhibitors and methods of use thereof” (ENANTA PHARMACEUTICALS, INC., priority 2017, dated 2019)

Target: ASK1 (Homo sapiens (Human), UniProt Q99683)
Assay: HTRF KinEASE Assay (TR-FRET, STK3 peptide substrate), inhibition of ASK1
Type: biochemical
Conditions: 5 nM ASK1 kinase, 1 μM STK3 peptide substrate, 100 μM ATP, 3 hours; compound 0 to 10 μM
In short: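 TR-FRET HTRF KinEASE-STK format with an STK3 biotinylated peptide substrate. Signal tracks phosphorylation; IC50 from curve fitting.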

Chain of ASK1 (Q99683 whole entry): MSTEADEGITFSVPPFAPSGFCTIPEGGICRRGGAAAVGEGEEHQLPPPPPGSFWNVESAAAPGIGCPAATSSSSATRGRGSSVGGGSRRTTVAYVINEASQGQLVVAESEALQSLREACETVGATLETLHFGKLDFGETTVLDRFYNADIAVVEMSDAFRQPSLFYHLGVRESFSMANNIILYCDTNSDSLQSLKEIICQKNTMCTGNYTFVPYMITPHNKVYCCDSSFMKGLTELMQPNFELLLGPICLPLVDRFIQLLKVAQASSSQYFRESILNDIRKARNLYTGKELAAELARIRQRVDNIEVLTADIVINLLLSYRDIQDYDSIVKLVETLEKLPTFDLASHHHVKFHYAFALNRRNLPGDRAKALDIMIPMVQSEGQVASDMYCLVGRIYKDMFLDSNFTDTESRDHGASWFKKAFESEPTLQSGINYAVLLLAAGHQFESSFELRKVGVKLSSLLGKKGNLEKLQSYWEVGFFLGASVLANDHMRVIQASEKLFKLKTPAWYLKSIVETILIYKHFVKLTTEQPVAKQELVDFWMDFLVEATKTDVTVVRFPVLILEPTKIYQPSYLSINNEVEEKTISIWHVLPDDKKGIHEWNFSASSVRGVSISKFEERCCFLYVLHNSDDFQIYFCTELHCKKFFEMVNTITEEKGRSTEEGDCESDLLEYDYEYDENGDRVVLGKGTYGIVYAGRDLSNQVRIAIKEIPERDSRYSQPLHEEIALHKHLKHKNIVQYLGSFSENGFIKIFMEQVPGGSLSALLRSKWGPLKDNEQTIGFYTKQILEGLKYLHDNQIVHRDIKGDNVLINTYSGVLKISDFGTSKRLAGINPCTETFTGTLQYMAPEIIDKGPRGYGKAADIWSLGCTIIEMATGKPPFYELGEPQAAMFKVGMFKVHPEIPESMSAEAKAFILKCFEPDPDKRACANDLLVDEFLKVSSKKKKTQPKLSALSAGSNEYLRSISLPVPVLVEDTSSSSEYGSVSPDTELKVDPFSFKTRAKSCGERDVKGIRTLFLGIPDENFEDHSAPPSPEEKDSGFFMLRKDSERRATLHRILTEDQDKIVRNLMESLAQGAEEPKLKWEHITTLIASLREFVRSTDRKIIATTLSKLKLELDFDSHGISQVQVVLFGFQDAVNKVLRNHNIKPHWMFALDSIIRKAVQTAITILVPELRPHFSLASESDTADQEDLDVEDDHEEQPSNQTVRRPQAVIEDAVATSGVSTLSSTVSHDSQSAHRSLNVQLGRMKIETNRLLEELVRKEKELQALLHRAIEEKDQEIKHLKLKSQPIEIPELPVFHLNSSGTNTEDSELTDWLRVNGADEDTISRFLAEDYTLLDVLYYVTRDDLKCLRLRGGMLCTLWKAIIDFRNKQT

Row | SMILES | IC50 [nM]
1 | CCn1cc(COC(=O)N2CCc3cnc(C(=O)Nc4cccc(-c5nnnn5[C@H](C)CO)n4)cc3C2)cn1 [Example 188, (1-ethyl-1H-pyrazol-4-yl)methyl (R)-7-((6-(1-(1-hydroxypropan-2-yl)-1H-tetrazol-5-yl)pyridin-2-yl)carbamoyl)-3,4-dihydro-2,6-naphthyridine-2(1H)-carboxylate] | 1 to 10
2 | C[C@H](CO)n1nnnc1-c1cccc(NC(=O)c2cc3c(cn2)CCN(C(=O)OC2CC4CCC(C2)N4C)C3)n1 (stereo partly drawn) [Example 190, 8-methyl-8-azabicyclo[3.2.1]octan-3-yl 7-((6-(1-((R)-1-hydroxypropan-2-yl)-1H-tetrazol-5-yl)pyridin-2-yl)carbamoyl)-3,4-dihydro-2,6-naphthyridine-2(1H)-carboxylate] | 1 to 10
